The nature of data set [1]: Sustained release property in the rabbit knee joint (residual ratio in synovial fluid and synovium). As to conditions: intra-articular.
Data set [2] has as its system 1% silver nitrate-induced pain model. As to the kind of experiment: 1% silver nitrate-induced pain model in rats. An excerpt:
As General anesthesia, inhalation of isoflurane (Forane (registered trade mark), Dainippon Pharmaceutical Co., Ltd., concentration 3.0%, flow rate 2.0 liters/min) filled in a small animal anesthetizer (TK-4, manufactured by BioMachinery Co., Ltd.) was employed.
Rats (Crj:SD (SPF), male, 6-weeks-old) were fixed in the supine position under ether anesthesia, and a wide area around the knee joint of the left hind paw was shaved with an electric clipper. After disinfecting the area around the joint by spraying 70% alcohol, 1% silver nitrate solution was administered into the knee joint cavity of the left hind paw at a dose of 50 μl/joint using a 29 G needle-tipped syringe for insulin use (manufactured by Terumo Corp.).
Regarding the administration method, as in the case of algesic substances, the area around the joint was disinfected by spraying 70% alcohol under inhalation anesthesia by isoflurane, and each test substance was administered into the knee joint cavity of the left hind paw at a dose of […] using a 29 G needle-tipped syringe for insulin use (n=5).
The walking of each group was visually observed and scored by using the following pain score table which was figured walking in score under blinded conditions.
Score • 0: Normal (includes nearly normal) • 1: Mild claudication • 2: Severe claudication • 3: Walking on three legs
In addition, the weight loading on the silver nitrate-injected paw (left hind paw) was measured by using a weighting activity analgesia meter (manufactured by Tokken Inc.), and the weight loading rate was calculated by dividing the measured value by the body weight.
Test substances were orally administered by using a sonde for oral administration to rat (manufactured by Fuchigami Kikai) at a dose of 1 ml/head.
In FIG. 6, the “Diclofenac Na (p.o.) 50 mg/kg” corresponds to the above-described (i) (high dose group), and the “Diclofenac Na (p.o.) 1 mg/kg” corresponds to the above-described (ii) (low dose group).

A short description of a further data set: Filter pass through test. The data set is classed as physicochemical. The settings on record: 1.0% by weight in PBS, 0.45 μm porous filter (25 mm in diameter), 24° C., 5.0 kg/cm^2. As to the method:
PBS in which each substance to be tested was dissolved to a concentration of 1.0% by weight was prepared. At a temperature of 24° C. under pressure of 5.0 kg/cm^2, each solution of the substances to be tested prepared in the following examples was passed through a 0.45 μm porous filter (25 mm in diameter), and the passed amount (ml) per 1 minute was measured A case in which 2 ml or more was passed is shown by “A”, and a case in which less than 2 ml was passed by “B”, and a case in which none passed by “C”.

Data set [3] is described as follows: Appearance of the 1.0% by weight solution in PBS. Type of data set: physicochemical. As to conditions: dissolved in PBS to 1.0% by weight.
Where [4] appears, read: intra-articular injection 24 hours after 1% silver nitrate, in comparison with PBS.

On to `CC(C(=O)O)c1cccc(C(=O)c2ccccc2)c1` (centres unmarked) [KP, ketoprofen], for which, in data set [1], the “time until KP disappeared from the synovial fluid and synovium” value is not above 6 h; the “time until KP disappeared from the synovium” value was not above 6 h.

Take `O=C(O)Cc1ccccc1Nc1c(Cl)cccc1Cl` [diclofenac sodium, reference compound]: the “analgesic effect (pain score, walking)” value in data set [2] (setting [4]) was “did not show significant effect in comparison with PBS”; in data set [2] (oral administration, high dose 50 mg/kg (1% suspension in 10% gum arabic, 1 ml/head)), “showed analgesic effect”; in data set [2] (oral administration, low dose 1 mg/kg (0.02% suspension in 10% gum arabic, 1 ml/head)), “the effect was not found in comparison with the PBS intra-articular injection group”. Besides, the adverse effects observed entry in data set [2] (oral administration, high dose 50 mg/kg) was “positive fecal occult blood reaction, jaundice-like symptom and body weight loss were observed from the next day”.

In the case of “Aminoethanol-diclofenac-Introduced Sodium Hyaluronate (DS 14.7%) [Example 39]”, in data set [2] (setting [4]), the “analgesic effect (pain score, walking)” value is listed as “showed remarkable analgesic effect”. “Aminopropanol-acetylsalicylic Acid-Introduced Sodium Hyaluronate [Example 11]”: the “filter pass through test (passed amount per 1 minute)” value in “Filter pass through test” is given as “A (2 ml or more was passed)”. Besides, the “appearance of the solution” value in data set [3] is “colorless and transparent liquid”. With “Aminopropanol-diclofenac-Introduced Sodium Hyaluronate (65 kDa) Sodium (DS 17.1%) [Example 37]”, in data set [2] (setting [4]), the “analgesic effect (pain score, walking)” value was “showed diminished analgesic effect in comparison with the case of the molecular weight of 800,000”. For the compound “Aminopropanol-diclofenac-Introduced Sodium Hyaluronate (DS 4.3%) [Example 35]”, the “analgesic effect (pain score, walking)” value in data set [2] (setting [4]) is recorded as “showed analgesic effect”. Still for that read-out and setting: then “Aminopropanol-diclofenac-Introduced Sodium Hyaluronate (DS 9.7%) [Example 36]”, with “showed a remarkable analgesic effect in comparison with PBS”.

For “Aminopropanol-diclofenac-Introduced Sodium Hyaluronate [Example 19]”, the “analgesic effect (pain score, walking)” value in data set [2] (intra-articular injection 24 hours after 1% silver nitrate, in comparison with PBS, listed as DS 18.2%) is listed as “showed a remarkable analgesic effect in comparison with PBS”; in data set [2] (intra-articular injection 24 hours after 1% silver nitrate, in comparison with PBS, listed as diclofenac-introduced hyaluronic acid derivative), “showed the analgesic effect after the administration”.

“Aminopropanol-felbinac-Introduced Hyaluronic Acid [Example 13]”: the “filter pass through test (passed amount per 1 minute)” value in “Filter pass through test” is on record as “A (2 ml or more was passed)”. In data set [3], the “appearance of the solution” value was “colorless and transparent liquid”. “Aminopropanol-fenbufen-Introduced Hyaluronic Acid [Example 15]”: the “filter pass through test (passed amount per 1 minute)” value in the data set “Filter pass through test” is listed as “A (2 ml or more was passed)”. As to “Aminopropanol-flurbiprofen-Introduced Sodium Hyaluronate [Example 9]”, the “filter pass through test (passed amount per 1 minute)” value in “Filter pass through test” is reported as “A (2 ml or more was passed)”. Also, the “appearance of the solution” value in data set [3] is “colorless and transparent liquid”. With “Aminopropanol-ibuprofen-Introduced Sodium Hyaluronate [Example 7]”, the “filter pass through test (passed amount per 1 minute)” value in “Filter pass through test” was “A (2 ml or more was passed)”. Regarding “Aminopropanol-mefenamic Acid-Introduced Hyaluronic Acid [Example 17]”, the “filter pass through test (passed amount per 1 minute)” value in “Filter pass through test” is “A (2 ml or more was passed)”. Besides, the “appearance of the solution” value in data set [3] is “colorless and transparent liquid”.

Consider “Diaminopropane-diclofenac-Introduced Sodium Hyaluronate (DS 18.1%) [Example 41]”, for which the “analgesic effect (pain score, walking)” value in data set [2] (setting [4]) is on record as “had no effect on the test system of this example”.

Values taken from patent US7879817B2, “Hyaluronic acid derivative and drug containing the same” (priority 2004, dated 2011).
